Laboratory results: patent US6987114B1, “Antiviral pyrimidinedione derivatives and process for the preparation thereof” (Samjin Pharmaceutical Co., Ltd, priority 1999, dated 2006)
≈ marks a conversion by molar mass, not a printed value. Like-named read-outs stand apart in the source and are kept apart here.

Assays:
[1] = system: mock-infected MT-4 cells; test: Cytotoxicity based on viability of mock-infected host cells (MTT method); assay type: cell-based; settings: mock-infected MT-4 cells, MTT method, 4 or 5 days at 37° C.
Outline: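 Mock-infected MT-4 cells at 2.5×10^5 cells/ml were exposed to various concentrations of test compound, run in parallel with HIV-infected (1000 CCID50) cultures. After 4 or 5 days at 37° C., host-cell viability was read by MTT.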

[2] = system: HIV; test: microbe, parasite or virus in culture; assay type: cell-based
Outline: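 MT-4 cells (2.5×10^5 cells/ml) infected with 1000 CCID50 HIV, added at once to compound dilutions, incubated 4 or 5 days at 37° C. Protection from virus-induced cytopathic effect read by MTT; cytotoxicity from MTT viability of mock-infected cells in parallel.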

[3] = Human immunodeficiency virus 1, MT4, HIV-infected MT-4 cells, MTT method, 4 or 5 days at 37° C., read-out: ED50 (the source's name)
[4] = Human immunodeficiency virus 1, MT4, read-out: ED50

Row | Compound | melting point [°C] | EC50 [2, 3] [µg/mL] | CD50 [1] [µg/mL] | EC50 [2, 4] [µg/mL]
1 | CCc1c(C(=O)c2cc(C)cc(C)c2)n(CC2CC2)c(=O)[nH]c1=O [Example 5, 1-(Cyclopropyl)methyl-5-ethyl-6-(3,5-dimethylbenzoyl)-2,4-pyrimidinedione] | 234 to 236 | 0.0011 (≈ 0.00337 µM) | 39.4 | –
2 | CCc1c(Sc2cc(C)cc(C)c2)n(Cc2ccc3ccccc3n2)c(=O)[nH]c1=O [Example 131, 1-(Quinolin-2-ylmethyl)-5-ethyl-6-(3,5-dimethylphenyl)-thio-2,4-pyrimidinedione] | 107 to 110 | > 10.6 | 10.60 | –
3 | CCc1c(Oc2cc(C)cc(C)c2)n(Cc2cccc(Br)n2)c(=O)[nH]c1=O [Example 127, 1-(2-Bromopyridin-6-ylmethyl)-5-ethyl-6-(3,5-dimethylphenoxy)-2,4-pyrimidinedione] | 201 to 203 | 0.194 (≈ 0.451 µM) | 9.46 | –
4 | CCc1c(Oc2cc(C)cc(C)c2)n(Cc2cc(Br)cc(Br)c2)c(=O)[nH]c1=O [Example 87, 1-(3,5-Dibromobenzyl)-5-ethyl-6-(3,5-dimethylphenoxy)-2,4-pyrimidinedione] | 210 to 211 | – | >100.00 | 2.05 (≈ 4.03 µM)
5 | CCc1c(Oc2cc(C)cc(C)c2)n(Cc2occc2C(=O)OC)c(=O)[nH]c1=O [Example 153, 1-(3-Methoxycarbonyl-2-furanylmethyl)-5-ethyl-6-(3,5-dimethylphenoxy)-2,4-pyrimidinedione] | 150 to 152 | 0.278 (≈ 0.698 µM) | 12.22 | –
6 | CCC(=O)Cn1c(Oc2cc(C)cc(C)c2)c(C(C)C)c(=O)[nH]c1=O [Example 162, 1-(2-Butanon-1-yl)-5-isopropyl-6-(3,5-dimethylphenoxy)-2,4-pyrimidinedione] | 135 to 138 | – | 41.40 | 0.0159 (≈ 0.0462 µM)

Continued, in another order:

Row | melting point [°C] | EC50 [2, 3] [µg/mL] | Compound | CD50 [1] [µg/mL] | EC50 [2, 4] [µg/mL]
7 | 153 to 155 | 0.0084 (≈ 0.0231 µM) | CCc1c(C(=O)c2cc(C)cc(C)c2)n(Cc2ccccn2)c(=O)[nH]c1=O [Example 113, 1-(Pyridin-2-ylmethyl)-5-ethyl-6-(3,5-dimethylbenzoyl)-2,4-pyrimidinedione] | 32.80 | –
8 | 180 to 183 | 0.014 (≈ 0.033 µM) | COC(=O)c1ccoc1Cn1c(C(=O)c2cc(C)cc(C)c2)c(C(C)C)c(=O)[nH]c1=O [Example 156, 1-(3-Methoxycarbonyl-2-furanylmethyl)-5-isopropyl-6-(3,5-dimethyl-benzoyl)-2,4-pyrimidinedione] | 10.92 | –
9 | 171 to 173 | 0.0027 (≈ 0.00762 µM) | Cc1cc(C)cc(C(=O)c2c(C(C)C)c(=O)[nH]c(=O)n2CC2CCC2)c1 [Example 12, 1-(Cyclobutyl)methyl-5-isopropyl-6-(3,5-dimethylbenzoyl)-2,4-pyrimidinedione] | 8.5 | –
10 | 135 to 137 | 0.018 (≈ 0.042 µM) | COC(=O)c1ccoc1Cn1c(Sc2cc(C)cc(C)c2)c(C(C)C)c(=O)[nH]c1=O [Example 152, 1-(3-Methoxycarbonyl-2-furanylmethyl)-5-isopropyl-6-(3,5-dimethylphenyl)thio-2,4-pyrimidinedione] | 9.61 | –
11 | 250 to 253 | 0.005 (≈ 0.0125 µM) | Cc1cc(C)cc(C(=O)c2c(C(C)C)c(=O)[nH]c(=O)n2Cc2ccccc2C#N)c1 [Example 42, 1-(2-Cyanobenzyl)-5-isopropyl-6-(3,5-dimethylbenzoyl)-2,4-pyrimidinedione] | >100.00 | –
12 | 194 to 196 | 0.009 (≈ 0.0236 µM) | Cc1cc(C)cc(Sc2c(C(C)C)c(=O)[nH]c(=O)n2Cc2ccccn2)c1 [Example 110, 1-(Pyridin-2-ylmethyl)-5-isopropyl-6-(3,5-dimethylphenyl)thio-2,4-pyrimidinedione] | 9.61 | –
